Measurements published in US7183411B2, “Naphthol, quinoline and isoquinoline-derived urea modulators of vanilloid VR1 receptor” (Janssen Pharmaceutica N.V., priority 2002, dated 2007).
Where two headings read alike, the source gives them in different places.

Experiments:
human VR1 [1] = target: T1, human VR1 (Homo sapiens, UniProt Q8NER1); experiment: Broadly stimulated recombinant human VR1 functional assay (Ca2+ influx, FLIPR); assay type: cell-based
T1 construct: expressed in transfected cells; host or cells: HEK293

VR1 (rat spinal cord) = target: T2, VR1 (rat spinal cord) (Rattus norvegicus, UniProt O35433); experiment: [3H]-RTX binding assay using rat tissue (spinal cord membranes); conditions: cells marked (rat), read-out: Receptor binding Ki (rat)
T2 construct: Rat spinal cord was homogenized twice with a Polytron; from tissue; host or cells: rat spinal cord membranes
Method: Alternatively, a binding assay using rat tissue was used. Rat spinal cord was homogenized twice with a Polytron and centrifuged at 3000 rpm for 10 min in HEPES buffer containing 20 mM HEPES, pH 7.4, NaCl 5.8 mM, sucrose 320 mM, MgCl2 2 mM, CaCl2 0.75 mM and KCl 5 mM. The supernatant was then centrifuged at 18,000 rpm for 20 min. The pellet was saved in a tube and 10 ml assay buffer was added into the tube. The pellet and buffer were mixed with a Polytron. The assay contained 120 μg/ml membrane protein and 0.3–0.6 nM [^3H]-RTX (NEN, Boston) in a total volume of 0.5 ml HEPES buffer. Following-incubation for 60 min at 37 C, the samples were cooled down on ice, and 100 mg of α-acid glycoprotein were added into the samples. After centrifugation at 13,000 rpm for 15 min, the supernatant was aspirated and the tips of tubes were cut off and placed into 6 ml vials. Data were calculated according to the equation: % inhibition=(total binding−binding)*100/(total binding−non specific binding). Ki value values were calculated using a Prism program.

[2] = target: T3, human VR1 vanilloid receptors (Homo sapiens, UniProt Q8NER1); experiment: [3H] RTX binding assay, hVR1 membranes from transfected HEK293 cells; conditions: human VR1, read-out: Receptor binding Ki
T3 construct: expressed in transfected cells; host or cells: HEK293
Method: Compounds of the present invention were tested for their ability to inhibit the binding of [^3H] RTX to hVR1 receptors in a [^3H] RTX binding assay as previously described (Zhang, Sui-Po. Improved ligand binding assays for vanilloid receptors. PCT Int. Appl. (2002), 29 pp. CODEN: PIXXD2 WO 0233411 A1 20020425 AN 2002:315209; Grant, Elfrida R.; Dubin, Adrienne E.; Zhang, Sui-Po; Zivin, Robert A.; Zhong, Zhong Simultaneous intracellular calcium and sodium flux imaging in human vanilloid receptor 1 (VR1)-transfected human embryonic kidney cells: a method to resolve ionic dependence of VR1-mediated cell death. Journal of Pharmacology and Experimental Therapeutics (2002), 300(1), 9–17.)
HEK293 cells were transfected with human VR1 vanilloid receptors and washed with Hank's Balanced Salt Solution, dissociated with cell dissociation buffer (Sigma), and then centrifuged at 1000×g for 5 min. Cell pellets were homogenized in cold 20 mM HEPES buffer, pH 7.4, containing 5.8 mM NaCl, 320 mM sucrose, 2 mM MgCl2, 0.75 CaCl2 and 5 mM KCl and centrifuged at 1000×g for 15 min. The resultant supernate was then centrifuged at 40000×g for 15 min. The pelleted membranes were kept in an −80° C. freezer.
Approximately 120 μg protein/ml from membranes were incubated with indicated concentrations of [^3H] RTX in 0.5 ml of the HEPES buffer (pH 7.4) containing 0.25 mg/mL fatty acid-free bovine serum albumin at 37° C. for 60 min. The reaction mixture was then cooled to 4° C., 0.1 mg α1-acid glycoprotein added to each sample and incubated at 4° C. for 15 min. The samples were centrifuged at 18500×g for 15 min. The tip of the microcentrifuge tube containing the pellet was cut off. Bound radioactivity was quantified by scintillation counting. Non-specific binding was tested in the presence of 200 nM unlabeled RTX.

[3] = system: Carrageenan paw-induced thermal hyperalgesia; experiment: Carrageenan paw-induced thermal hyperalgesia; assay type: in vivo; conditions: rat, po, reversal of carrageenan thermal hyperalgesia; read-out: CgHP ED50
Method: Each rat is placed on a heated surface (51° C.) in order to measure the time necessary to elicit a response, and an initial (baseline) response time to a thermal stimuli was recorded for each animal. A response is defined as any shaking, licking, or tucking of the treated paw or jumping. Animals not treated with a test compound respond in approximately 20 seconds. The maximal exposure time permitted is 60 seconds to prevent tissue damage. Rats were injected with an irritant (e.g., 1% carrageenan solution in 0.9% saline) subcutaneously into the sub-plantar tissue of the left hind paw to stimulate an acute inflammatory reaction.
Two hours later, the response time of the animal to the thermal stimulus was evaluated and compared to the animal's baseline response time. This shorter response time was recorded as percent hyperalgesia (% H). A cut-off value for % H (usually 75%) was used during analysis to ensure that the animals were hyperalgesic. Animals were then dosed with test drug or vehicle.
At some time(s) later (typically 45 and 90 minutes), the response time of the animal to the thermal stimulus was again evaluated. For each time point, a percent reversal of hyperalgesia (% R) was calculated using the following formula: % R=(Drug Latency−Carrageenan latency)/(Baseline latency−Carrageenan latency). ED50 values were calculated from % R obtained at several drug doses.

[4] = target: recombinant rat VR1 (rVR1/HEK293) (Rattus norvegicus, UniProt O35433); experiment: Broadly stimulated recombinant rat VR1 functional assay (Ca2+ influx, FLIPR); conditions: for IC50: recombinant rat VR1, Ca2+ influx
Description: In an effort to identify potent and efficacious antagonists at human and rat VR1 that were active under conditions simulating aspects of in vivo inflammation functional assays were developed using FLIPR to determine antagonist activity against endogenous activators and stimuli likely to be present in inflammation. Cell lines were constructed that stably expressed recombinant rat VR1 (rVR1/HEK293). Cells were exposed to various stimuli at their EC80, with the exception of the low pH and DTT stimuli.
These studies were corroborated and further studies were performed to confirm that the phorbol ester effect was not due to direct effects on the channel. […] Cells were challenged with 300 nM PMA (˜EC80) after 3 min in the indicated antagonist.
Cells were challenged with 5–10 mM DTT to stimulate VR1 after 3 min incubation in compound.
We performed assays similar to those described for the human recombinant receptor with the exception that a lower pH was required in the Ca^2+ influx assay at the rat recombinant receptor.

human VR1 [5] = target: T1, human VR1; experiment: Human VR1 functional assay (FLIPR intracellular Ca2+, capsaicin challenge); assay type: cell-based; conditions: read-out: In vitro functional assays hIC50 or EC50
Method: The functional activity of the test compounds was determined by measuring changes in intracellular calcium concentration using a Ca^++-sensitive fluorescent dye and FLIPR™ technology.
HEK293 Cells expressing human VR1 were grown on poly-D-lysine coated 96 well black-walled plates (BD 354640) and 2 days later loaded with Fluo-3/AM for 1 hour and subsequently tested for agonist-induced increases in intracellular Ca^2+ levels using FLIPR™ technology. […] EC50 or IC50 values were determined from dose-response studies.

[6] = system: capsaicin-induced guinea pig bronchial ring contraction; experiment: Isolated guinea pig bronchial rings, capsaicin-induced contraction (organ bath)
Method: Aminotetralin VR1 antagonists were tested for their potency to block capsaicin-induced guinea pig bronchial ring contraction in a standard in vitro organ bath assay [Tucker, 2001]. Two mm rings of bronchial tissue obtained from male guinea pigs (325 g) were suspended in normal Krebs solution between two wire hooks under an initial loading tension of 1 gram. The saline was maintained in a 5% CO2 and 95% O2 atmosphere at 37° C. in the presence of indomethacin (5 μM). A sub-maximal dose of 5-Methylfurmethide (5Mef, 1 μM) was added to each tissue to determine responsiveness using an isometric force transducer. After washout, tissues were exposed to compounds or vehicle for 30 min, treated with thiorphan (10 μM, 5% Na2CO3), and primed using KCl in increasing linear concentrations from 1 mM at 1 mM intervals until a slight increase in muscle tone was induced (˜1% of 5Mef response). […] The dose response curve was calculated as % max of the 5-Mef response and estimated pA2 were determined [Tucker, 2001]).

[7] = system: DSS-induced acute colitis; experiment: Rodent colitis model (5% dextran sulfate sodium); assay type: in vivo, mice or rats; conditions: preliminary study
Method: 5% Dextran Sulfate Sodium administered in the drinking water of mice or rats for 7 days results in an acute colitis with some morphological changes that are similar to human ulcerative colitis. Among those changes are colon shortening, accumulation of neutrophils and other inflammatory cells, decreases in colon weight, decreases in body weight, tissue damage in the colon, and loss of stool consistency.
Each animal is dosed daily in the morning and late afternoon for BID dosing. Treatment with vehicle or test compound begins on day 0, immediately after initial body weights are taken, and ends on day 6. Water bottles are removed and replaced by graduated water bottles containing 5% DSS in indicated groups. Tap water remains on control groups only. Sufficient DSS drinking water is placed in graduated water bottles and refilled each day to monitor daily output. Animals are weighed daily from day 0 to 7, and animal condition and the consistency of stools recorded. Following sacrifice of the animal on day 7, the colon is surgically removed from the distal rectum (anus) to the cecal-colonic juncture and the colon length and weight measured. Colon slices may be obtained for histological evaluation. […] Water consumption and body weights are measured daily. […] An increase in myeloperoxidase activity occurs in this model and is evaluated separately.

[8] = target: T4, VR1 expressed endogenously on small rat dorsal root ganglion (DRG) neurons (Rattus norvegicus, UniProt O35433); experiment: Electrophysiologic functional assay using dissociated rat DRG cells; assay type: cell-based; conditions: read-out: In vitro functional assays Estimated pA2 (rat) (converted)
T4 construct: VR1 expressed endogenously on small rat dorsal root ganglion (DRG) neurons; endogenous in cells; host or cells: dissociated rat DRG neurons
Method: Compounds are tested for their activity on VR1 expressed endogenously on small rat dorsal root ganglion (DRG) neurons. DRG neurons from normal rats were dissociated (see methods in Chaplan et al., 2003) and whole cell currents mediated by VR1 were recorded using the whole cell patch clamp technique.

[9] = system: capsaicin-induced cough responses; experiment: Capsaicin-induced cough (antitussive efficacy); assay type: in vivo; conditions: guinea pig, 25 mg/kg IP at -60 min; vehicle 3.0±0.5; P<0.001
Method: The antitussive activity of intraperitoneally (IP) administered compound is assessed at a single dose level against casaicin-induced cough responses as compared to positive and vehicle controls. Thirty-six male Dunkin-Hartley guinea pigs (295–590 g, mean 425 g) are randomly allocated to one of three groups (n=12 guinea pigs per group). […] Guinea pigs are dosed IP at −60 min with vehicle (15% Solutol in 5% dextrose solution); the positive control codeine (25 mg/kg), or test compound (20 mg/kg in 15% Solutol in 5% dextrose solution). Individual guinea pigs are placed in an exposure chamber with an airflow of 3 L/min at −10 min to acclimatize. […] The mean±SEM number of capsaicin-induced cough responses recorded in vehicle pre-treated guinea pigs was 3.0±0.5. […] ANOVA statistical analysis was used to determine the level of significance.

[10] = recombinant human VR1, Ca2+ influx, stimulus 300 nM PMA, read-out: IC50, PKC phosphorylation
[11] = recombinant human VR1, Ca2+ influx, stimulus low pH (pH 6.5), read-out: IC50, Low pH

T3 sequence (Q8NER1 whole entry): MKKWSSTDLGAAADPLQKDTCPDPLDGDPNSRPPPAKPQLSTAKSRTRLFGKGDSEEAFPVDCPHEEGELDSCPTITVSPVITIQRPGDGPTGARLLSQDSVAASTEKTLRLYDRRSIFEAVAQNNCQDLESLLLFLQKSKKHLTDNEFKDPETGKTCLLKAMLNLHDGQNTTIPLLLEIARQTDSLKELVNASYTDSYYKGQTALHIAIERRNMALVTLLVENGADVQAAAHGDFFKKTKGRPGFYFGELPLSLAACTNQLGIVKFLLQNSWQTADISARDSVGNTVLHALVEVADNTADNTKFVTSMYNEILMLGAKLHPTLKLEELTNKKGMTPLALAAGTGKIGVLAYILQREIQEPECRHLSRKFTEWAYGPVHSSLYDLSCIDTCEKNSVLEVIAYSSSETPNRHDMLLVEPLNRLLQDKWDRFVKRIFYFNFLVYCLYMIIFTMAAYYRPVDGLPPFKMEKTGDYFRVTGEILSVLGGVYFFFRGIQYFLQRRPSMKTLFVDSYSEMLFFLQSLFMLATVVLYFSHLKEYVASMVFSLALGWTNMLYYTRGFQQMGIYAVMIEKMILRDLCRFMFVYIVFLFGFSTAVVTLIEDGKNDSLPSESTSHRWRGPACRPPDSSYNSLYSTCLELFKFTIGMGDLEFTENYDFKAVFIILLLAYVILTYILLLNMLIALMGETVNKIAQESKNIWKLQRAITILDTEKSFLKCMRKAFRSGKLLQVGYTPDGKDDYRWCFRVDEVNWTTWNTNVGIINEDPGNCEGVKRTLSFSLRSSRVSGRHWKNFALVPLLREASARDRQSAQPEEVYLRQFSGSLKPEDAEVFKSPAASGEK
T1 sequence (Q8NER1 whole entry): as above
recombinant rat VR1 (rVR1/HEK293), sequence (O35433 whole entry): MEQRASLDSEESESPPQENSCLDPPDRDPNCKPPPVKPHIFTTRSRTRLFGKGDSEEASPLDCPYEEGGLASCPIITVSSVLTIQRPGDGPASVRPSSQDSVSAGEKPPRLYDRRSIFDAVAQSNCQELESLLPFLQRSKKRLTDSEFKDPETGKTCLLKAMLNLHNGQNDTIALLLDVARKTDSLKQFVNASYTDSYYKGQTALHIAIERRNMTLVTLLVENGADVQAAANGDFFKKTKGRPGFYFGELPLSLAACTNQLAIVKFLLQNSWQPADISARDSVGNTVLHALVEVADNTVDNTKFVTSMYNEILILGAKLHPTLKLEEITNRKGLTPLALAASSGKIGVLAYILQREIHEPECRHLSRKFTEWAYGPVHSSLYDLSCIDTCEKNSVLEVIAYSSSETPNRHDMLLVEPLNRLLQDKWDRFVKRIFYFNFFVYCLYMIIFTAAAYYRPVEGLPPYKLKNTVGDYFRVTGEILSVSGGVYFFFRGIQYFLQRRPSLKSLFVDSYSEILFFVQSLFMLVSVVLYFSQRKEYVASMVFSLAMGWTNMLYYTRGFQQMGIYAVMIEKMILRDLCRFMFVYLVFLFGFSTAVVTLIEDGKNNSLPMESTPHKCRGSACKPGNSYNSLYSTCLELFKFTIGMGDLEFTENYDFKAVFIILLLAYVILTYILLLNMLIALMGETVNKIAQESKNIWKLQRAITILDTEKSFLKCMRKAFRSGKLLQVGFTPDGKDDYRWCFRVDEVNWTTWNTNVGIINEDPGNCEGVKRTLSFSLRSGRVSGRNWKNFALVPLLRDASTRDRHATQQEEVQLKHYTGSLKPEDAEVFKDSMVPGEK
T4 sequence (O35433 whole entry): as above
T2 sequence (O35433 whole entry): as above

Compound: OO [Compound H2O2, H2O2]
- EC80 for H2O2-induced Ca2+ flux (human VR1 [1]; VR1/HEK cells, species not stated): 0.015 % H2O2

Compound: O=C(NCc1ccc(-c2cccs2)s1)Nc1cccc2ccc(O)cc12 [Compound 39]
- Ki (VR1 (rat spinal cord)): 0.382 µM

Compound: O=C(NCc1ccc(C(F)(F)F)cc1)Nc1cccc2cnccc12 [Compound 4]
- Ki [2]: 0.00687 µM
- ED50 [3]: 0.804 mg/kg

Compound: CCCCC/C=C\C/C=C\C/C=C\C/C=C\CCCC(=O)NCCO [anandamide, Anandamide]
- EC50 (human VR1 [1]): 3 µM
- EC50 [4]: 5 µM

Compound: Cl.Cl.Cl.Cl.Cl.Cl.N.N.N.N.N.N.N.N.N.N.N.N.N.N.[O-2].[O-2].[Ru+3].[Ru+3].[Ru+4] [Ruthenium Red, ruthenium red]
- IC50 (human VR1 [1]; [10]): 0.5 µM
- IC50 (human VR1 [1]; [11]): 0.5 µM
- IC50 ([4]; read-out: IC50, Anandamide, stimulus anandamide 10 μM): 1.86 µM
- IC50 ([4]; read-out: IC50, PKC phosphorylation, stimulus 300 nM PMA): 0.3 µM

Compound: O=C(NCc1ccc(C(F)(F)F)cc1)Nc1cccc2ccc(O)cc12 [Compound 17]
- Ki [2]: 0.0001 µM
- IC50 or EC50 (human VR1 [5]): 0.004 µM
- ED50 [3]: 20 mg/kg

Compound: CCCCCCCCCCCCCC(=O)O[C@@H]1[C@@H](C)[C@@]2(O)[C@@H](C=C(CO)C[C@]3(O)C(=O)C(C)=C[C@@H]23)[C@@H]2C(C)(C)[C@]12OC(C)=O [PMA, phorbol-12-myristate-13-acetate]
- EC50 (human VR1 [1]; agonist at human recombinant VR1, read-out: EC50 (increase in intracellular Ca2+)): 0.09 µM
- EC50 ([4]; read-out: EC50 (increase in intracellular Ca2+), agonist at rat recombinant VR1): 0.09 µM

Compound: CC(C)(C)c1ccc(CNC(=O)Nc2cccc3cnccc23)cc1 [Compound 33]
- Ki [2]: 0.00026 µM
- IC50 or EC50 (human VR1 [5]): 0.0027 µM
- ED50 [3]: 0.276 mg/kg
- antagonist Kb (from pA2) against capsaicin-induced contraction [6]: 13 nM
- protection against colon shortening [7]: did not protect
- protection against colon weight loss [7]: did not protect

Compound: Oc1cc2c(cc1O)CN(C(=S)NCCc1ccc(Cl)cc1)CCC2 [Capsazepine, capsazepine]
- IC50 (human VR1 [1]; human recombinant receptor, FIG. 1, read-out: potency to inhibit Ca2+ activity induced by the panel of stimuli): 0.1 to 0.3 µM
- IC50 (human VR1 [1]; recombinant human VR1, Ca2+ influx, PMA at low pH, read-out: IC50, PKC phosphorylation at low pH): 0.37 µM
- IC50 (human VR1 [1]; [10]): 0.16 µM
- IC50 (human VR1 [1]; [11]): 0.11 µM
- IC50 ([4]; IC50, Anandamide, stimulus anandamide 10 μM): 1.3 µM
- IC50 ([4]; IC50, Low pH, stimulus low pH (pH 5.9)): 5 µM
- IC50 ([4]; IC50, PKC phosphorylation at low pH, PMA at low pH): 10 µM
- IC50 ([4]; IC50, PKC phosphorylation, stimulus 300 nM PMA): 10 µM

Compound: O=C(NCc1ccc(C(F)(F)F)cc1)Nc1cccc2c(Cl)nccc12 [Compound 55, 1-(1-Chloro-isoquinolin-5-yl)-3-(4-trifluoromethyl-benzyl)-urea]
- Ki [2]: 0.00735 µM
- Kb [8]: < 0.03 µM

Compound: O=C(NCc1ccc(Cl)c(C(F)(F)F)c1)Nc1cccc2ccc(O)cc12 [Compound 57, 1-(4-Chloro-3-trifluoromethyl-benzyl)-3-(7-hydroxy-naphthalen-1-yl)-urea]
- Ki [2]: 0.00114 µM
- Kb [8]: ~0.01 µM
- ED50 [3]: 0.354 mg/kg

Compound: O=C(NCc1ccc(OC(F)(F)F)cc1)Nc1cccc2cnccc12 [Compound 22]
- Ki [2]: 0.00128 µM
- IC50 or EC50 (human VR1 [5]): 0.0033 µM

Compound: COc1ccc2c3c1O[C@H]1[C@@H](O)C=C[C@H]4[C@@H](C2)N(C)CC[C@@]341 [codeine]
- number of capsaicin-induced cough responses (mean±SEM) [9]: 0.58±0.15 coughs
